In patent publication US7879792B2, “Synthetic peptide inhibitors of thrombin and thrombin activation of protease activated receptors 1 and 4” (The Regents of the University of Michigan, priority 2005, dated 2011):
Read-outs that look alike come from different tables or passages of the source. Where a SMILES comes first, the peptide text is derived from it.

Columns and labels:
[1] = tested on: γ-thrombin-induced platelet aggregation; assay: γ-thrombin-induced platelet aggregation in human platelet-rich plasma; assay type: cell-based; details: for Concentration of Peptide [mM] That Gives 100% Inhibition: 40 nM human gamma thrombin, human platelet-rich plasma; for concentration that abolished γ-thrombin-induced platelet aggregation: 40 nM γ-thrombin
Description: Fresh whole blood was collected and mixed with 0.013 M sodium citrate and platelet-rich plasma was prepared according to the method of Meloni et al., J. Biol. Chem. 266, 6786 (1991). Platelet-rich plasma with a normalized platelet count between 2-2.5×10^8 platelets/ml was added to a cuvette of an aggregometer (Chronlog Corp., Havertown, Pa.), standardized using the protocol of Meloni et al., supra. Peptides to be examined were added to the cuvette and the mixture stabilized for a few moments. Once the baseline was stabilized, γ-thrombin (10-70 nM) (Haematologic Technologies, Essex Junction, Vt.) was added to determine the minimal concentration of the agonist necessary to achieve full platelet aggregation. All investigations with peptides were performed using threshold concentrations of γ-thrombin. Aggregation was allowed to proceed for 5 minutes before stopping.
Table III is a tabulation of the library of peptides prepared and their influence on γ-thrombin-induced platelet aggregation in platelet-rich plasma. […] The numbers in the column represent the minimal concentration (mM) of the peptide that blocked 100% γ-thrombin-induced platelet aggregation of platelets in human platelet-rich plasma.
Human platelet samples were stimulated with 40 nM human gamma thrombin in each experiment.

[2] = tested on: normal human lung fibroblasts (NHLF); assay: α-thrombin-induced calcium mobilization in normal human lung fibroblasts; assay type: cell-based; details: 2 nM alpha thrombin
Description: The second assay developed to assess peptides from the combinatorial libraries uses inhibition of α-thrombin-induced calcium mobilization in fibroblasts. Normal human lung fibroblasts (NHLF) were purchased from Clonetics, San Diego, Calif., an affiliate of Bio-Wittaker, Walkersville, Md. The cytoplasmic free Ca^2+ concentration ([Ca^2+]i) was measured using the fluorescent Ca^2+ indicator fura-2 (Molecular Probes, Inc., Eugene, Oreg.). Suspension of fibroblasts in Hepes-Tyrode's buffer were loaded with fura-2 by incubation at 37° C. with 2 μM fura-2/acetoxymethyl ester for 45 minutes according to the method of Rasmussen et al., J. Biol. Chem. 268, 14322 (1993). The labeled fibroblasts were separated from excess probe by washing by centrifugation at 1000 rpm (180 xg). Aliquots of the labeled fibroblasts were transferred into a quartz cuvette with a magnetic stirrer, which was then placed in a thermostatically controlled chamber at 37° C. in a fluorescence spectrophotometer (Perkin-Elmer LS50B spectrofluorometer, Chicago, Ill.). Reagents, test peptide, and α-thrombin (0.25-2 nM), were sequentially added directly to the cuvette. The excitation wavelengths varied between 340 and 380 nm. Fluorescence was measured by recording emitted light at 510 nm as reported by Fisher et al., Mol Pharm. 35, 195 (1989). The minimum emission was determined on a solubilized fibroblast sample in the presence of 10 mM EDTA; maximum emission was determined on the same sample with 10 mM Ca^2+ added. The intrafibroblast free Ca^2+ concentration was calculated by the method of Grykiewicz et al., J. Biol. Chem. 260, 3440 (1985). The ratio of the fluorescence readings was calculated as R=340/380 nm and processed according to the equation [Ca^2+]i=KD((R−Rmin)/Rmax−R))(Sf2/Sb2) to determine the intrafibroblast free Ca^2+ concentration. The KD for fura-2 was assumed to be 224 nM. Rmax and Rmin are the maximum and minimum fluorescence ratios measured at the end of the experiment, respectively; Sf2 and Sb2 are the fluorescence values at 380 nm in the absence and presence of saturating [Ca^2+], respectively. The reaction was monitored for 3-5 minutes.

[3] = tested on: normal human citrated plasma; assay: activated partial thromboplastin time (APTT); assay type: biochemical
Description: (§1) The influence of the various peptide formulations used in the present invention on established coagulation-based assays was determined. The activated partial thromboplastin time (APTT) is performed by mixing 0.05 ml normal human citrated plasma with 0.05 ml activated partial thromboplastin reagent purchased from Organon Teknika, Research Triangle Park, NC in the absence or presence of a peptide inhibitor. After incubation for 5 min at 37° C., the mixture is recalcified with 0.05 ml of 30 mM calcium chloride and the time to clot formation is measured in an Amelung KC4A instrument (Sigma Chemical Corp, St. Louis, Mo.) (Hasan et al. Thrombosis and Haemostasis. 82, 1182-1187 (1999)). The prothrombin time (PT) is performed by mixing 0.05 ml normal human citrated plasma with 0.05 ml Simplastin (Organon Teknika, Research Triangle Park, NC) followed by incubation for 3 min at 37° C. in the absence or presence of a peptide inhibitor. At the addition of 0.05 ml of 30 mM calcium chloride, the time to clot formation is measured in an KC4A instrument (Sigma Chemical Corp, St. Louis, Mo.) (Hasan et al. Thrombosis and Haemostasis. 82, 1182-1187 (1999)). The thrombin clotting time (TCT) is performed by adding 0.1 ml normal human citrated plasma in the absence or presence of a peptide inhibitor and 0.05 ml of a α-thrombin solution such that the final concentration of the thrombin in the entire mixture was 1 nM. Upon addition of the thrombin, the time to clot formation is measured in an KC4A instrument (Sigma Chemical Corp, St. Louis, Mo.).

[4] = tested on: normal human citrated plasma; assay: prothrombin time (PT); assay type: biochemical
Description: as §1

[5] = tested on: normal human citrated plasma; assay: thrombin clotting time (TCT); assay type: biochemical; details: 1 nM thrombin
Description: as §1

human α-thrombin = human α-thrombin (Homo sapiens, UniProt P00734); assay: inhibition of α-thrombin hydrolysis of chromogenic substrate; assay type: biochemical; details: Ki (μM) + SD, αIIa (2 nM), alpha-thrombin 2 nM, Sar-Pro-Arg-paranitroanilide
γ-thrombin = assay: inhibition of γ-thrombin hydrolysis of chromogenic substrate; assay type: biochemical, human; details: read-out: Ki (μM) + SD, γIIa (2 nM), gamma-thrombin 2 nM, Sar-Pro-Arg-paranitroanilide

| SMILES | Concentration of Peptide [mM] That Gives 100% Inhibition [1] | concentration that abolished γ-thrombin-induced platelet aggregation [1] | inhibition of thrombin-induced calcium mobilization ([2]; 0.005 mM peptide) | inhibition of thrombin-induced calcium mobilization ([2]; 0.02 mM peptide) | peptide concentration with significant prolongation (p<0.05) of the APTT [3] | peptide concentration with significant prolongation (p<0.05) of the PT [4] | peptide concentration with significant prolongation (p<0.05) of the TCT [5] | Ki (human α-thrombin) | Ki (γ-thrombin) | Ki (γ-thrombin; listed as rOicPsF(p-I)) | Ki (γ-thrombin; listed as rOicPsF(p-NO2)) |
| --- | --- | --- | --- | --- | --- | --- | --- | --- | --- | --- | --- |
| C[C@@H](NC(=O)[C@@H]1CCCN1C(=O)[C@@H]1C[C@@H]2CCCC[C@@H]2N1C(=O)[C@H](N)CCCNC(=N)N)C(=O)N[C@@H](Cc1ccc(Br)cc1)C(N)=O [rOicPaF(p-Br), D-Arg-Oic-Pro-D-Ala-Phe(p-Br)] (HELM PEPTIDE1{[dR].[O=C([C@@H]1C[C@@H]2CCCC[C@@H]2N1[*:1])[*:2]].P.[dA].[O=C([C@H](Cc1ccc(Br)cc1)N[*:1])[*:2]].[am]}$$$$V2.0) | 0.018 mM | 18 µM | 35% | 84% | 12.5 µM | 6.25 µM | 0.78 µM | 6.4 to 10.6 µM | 48.7 ± 7 µM |  |  |
| C[C@@H](NC(=O)[C@@H]1CCCN1C(=O)[C@@H]1C[C@@H]2CCCC[C@@H]2N1C(=O)[C@H](N)CCCNC(=N)N)C(=O)N[C@@H](Cc1ccc(I)cc1)C(N)=O [rOicPaF(p-I), D-Arg-Oic-Pro-D-Ala-Phe(p-I)] (HELM PEPTIDE1{[dR].[O=C([C@@H]1C[C@@H]2CCCC[C@@H]2N1[*:1])[*:2]].P.[dA].[O=C([C@H](Cc1ccc(I)cc1)N[*:1])[*:2]].[am]}$$$$V2.0; N-terminus assumed) | 0.023 mM | 23 µM | 36% | 88% | 25 µM | 6.25 µM | 0.78 µM |  |  | 59.2 ± 13 µM |  |
| C[C@@H](NC(=O)[C@@H]1CCCN1C(=O)[C@@H]1C[C@@H]2CCCC[C@@H]2N1C(=O)[C@H](N)CCCNC(=N)N)C(=O)N[C@@H](Cc1ccc([N+](=O)[O-])cc1)C(N)=O [rOicPaF(p-NO2), D-Arg-Oic-Pro-D-Ala-Phe(p-NO2)] (HELM PEPTIDE1{[dR].[O=C([C@@H]1C[C@@H]2CCCC[C@@H]2N1[*:1])[*:2]].P.[dA].[O=C([C@H](Cc1ccc([N+](=O)[O-])cc1)N[*:1])[*:2]].[am]}$$$$V2.0; N-terminus assumed) | 0.033 mM | 33 µM | 26% | 47% | 50 µM | 6.25 µM | 1.56 µM |  |  |  | 87.9 ± 16 µM |
